Measured values: patent US9164099B2, “Site-specific labeling of affinity tags in fusion proteins” (LIFE TECHNOLOGIES CORPORATION, priority 2002, dated 2015)

Experiments:
Type in all cases: binding
[1] = test system: poly-histidine affinity tag containing fusion protein (urate oxidase); experiment: Gel detection of His-tagged urate oxidase with and without nickel ions (FIG. 1); conditions: staining solution without nickel ions compared with nickel ions
Experimental: FIG. 1B is a graph showing data from the same experiment performed without nickel ions.
Escherichia coli BL21 DE3 cells were transformed with plasmids containing either the human ATP synthase a subunit, the d subunit (including the leader sequence) or urate oxidase. Both proteins were constructed to have a poly-histidine affinity tag comprising six histidine residues, at the N-terminus and could be induced by isopropyl-beta-D-thiogalactoside (IPTG) addition to the medium. Pre-cultures (10 ml) were grown overnight in bacterial cell culture medium (LB medium) at 37° C. with constant shaking. The next day 100 μl was transferred to 50 ml of fresh LB medium containing 0.1 mg/ml ampicillin and grown until they reached an optical density at 595 nm (OD595) of 0.8. At this point 5 ml of culture was removed and immediately frozen on dry ice. To the rest of the culture 0.8 mM IPTG was added to induce the over-expression of the subunits. Samples (5 ml each) were taken after 10 min, 30 min, 1 h, 1.5 h, 2 h, 2.5 h, and 3 h and again frozen on dry ice. […]
The resulting green-fluorescent signal produced by compound 2 was visualized using the 473 nm excitation line of the SHG laser on the Fuji FLA-3000G Fluorescence Image Analyzer (Fuji Photo, Tokyo, Japan) with the 520 nm long pass filter or the 580 nm band pass filter, respectively. […]

[2] = target: T1, poly-histidine affinity tag containing fusion protein (Oligomycin sensitivity conferring protein; OSCP) (Homo sapiens, UniProt P48047); experiment: Gel detection of His-tagged OSCP followed by SYPRO Ruby total protein stain (FIG. 2, 3); conditions: staining solution containing nickel ions; compared with SYPRO Ruby total protein stain
T1 construct: poly-histidine; made in house
T1 sequence (P48047 24-213): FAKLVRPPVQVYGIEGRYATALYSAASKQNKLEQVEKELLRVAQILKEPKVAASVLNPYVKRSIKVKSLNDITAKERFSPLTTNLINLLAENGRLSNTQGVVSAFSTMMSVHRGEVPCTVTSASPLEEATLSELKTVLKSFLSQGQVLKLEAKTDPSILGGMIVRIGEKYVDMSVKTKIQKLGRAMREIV
From the text: (§1) FIG. 2: FIG. 2A is a graph showing the detection of a poly-histidine affinity tag containing fusion protein (Oligomycin sensitivity conferring protein; OSCP) labeled with Compound 2 in a staining solution containing nickel ions followed by the detection of (shown in FIG. 2B) total protein using the total protein stain SYPRO® Ruby.
as §1, with “3:” for “2:”, “3A” for “2A”, “15” for “2”, “3B)” for “2B)”
Following separation of the proteins on a SDS-polyacrylamide gel, the gels were fixed for 20 minutes in 100 ml of 50% ethanol/7% acetic acid and then fixed overnight in 100 ml of fresh fixative solution to ensure complete elimination of SDS. Gels were next washed 3 times for 20 minutes each in deionized water. The gels were then incubated in a staining solution containing 10 μM compound 1 or 2 μM compound 2; 100 μM NiCl2; 50 mM PIPES at pH 6.5 for 45-90 minutes in a total volume of 25 ml. Afterwards, the gels were washed 2 to 4 times for 20 minutes each in deionized water. In order to ensure that the optimal signal was documented, gels were imaged after the second and fourth wash. […]

[3] = test system: oligohistidine-tagged fusion proteins (the a subunit of Escherichia coli ATPase and porin); experiment: Detection of poly-histidine affinity tag fusion proteins on a microarray; conditions: 10 μM compound, 50 mM PIPES pH 6.5
Experimental: Purified oligohistidine-tagged fusion proteins (the a subunit of Escherichia coli ATPase and porin), as well as control proteins (bovine serum albumin and ovalbumin) are arrayed from a source plate (384 well plate) concentration of 0.468 μg/ml-0.240 mg/ml in water, onto HydroGel coated slides (Perkin Elmer), using the BioChip Arrayer™ (Perkin Elmer). The BioChip Arrayer™ utilizes a PiezoTip™ Dispenser consisting of 4 glass capillaries. Proteins are dispensed from the PiezoTip™ by droplets […] in volume to create array spots ˜200 microns in diameter with a 500 micron horizontal and vertical pitch (pitch=center to center spacing of spots). Proteins are arrayed in duplicate in four rows, with 10 dilution points. The resulting concentration range of the array is 166.5 pg/spot-0.325 pg/spot. For detection of oligohistine-tagged proteins, slides are incubated for 45 minutes on a rotator in 50% ethanol/7% acetic acid and then fixed overnight in fresh fixative solution to ensure complete elimination of SDS. Microarrays are next washed 3 times for 20 minutes each in deionized water. The microarrays are then incubated in a staining solution containing 10 μM Compound 2 or Compound 15; 50 mM PIPES at pH 6.5 for 45-90 minutes. Afterwards, the microarrays are washed 2 to 4 times for 20 minutes each in deionized water. […]

4,4-difluoro-4-bora-3a,4a-diaza-s-indacene-3,5-bis((6-(propionyl)amino-2-bis(carboxymethyl)amino)hexanoic acid), hexatriethylammonium salt [Compound 2]
sensitivity for the poly-histidine affinity tag [1]: increased sensitivity | selectivity for the poly-histidine affinity tag [2]: selective | signal on control proteins (bovine serum albumin and ovalbumin) [3]: little or no signal
